Experimental data reported in ChEMBL document CHEMBL1147835, “A practical synthesis of the major 3-hydroxy-2-pyrrolidinone metabolite of a potent CDK2/cyclin A inhibitor” (Bioorg Med Chem Lett, 2006).

How the values were obtained:
[1] = system: A2780; test: Antiproliferative activity against human A2780 cells; type: functional, cell-based
[2] = target: Cyclin-dependent kinase 2/cyclin A (Homo sapiens, UniProt P24941); test: Inhibition of CDK2/cyclin A; type: protein-complex assay

| SMILES | IC50 [1] [nM] | IC50 [2] [nM] |
| --- | --- | --- |
| C[C@H](C(=O)Nc1cc(C2CC2)n[nH]1)c1ccc(N2CC[C@H](O)C2=O)cc1 | 2200 | 27 |
| C[C@H](C(=O)Nc1cc(C2CC2)n[nH]1)c1ccc(N2CC[C@@H](O)C2=O)cc1 | 1600 | 27 |
